Experimental data published in US5358951A, “Angiotensin II receptor blocking 2, 3, 6 substituted quinazolinones” (American Cyanamid Company, priority 1993, dated 1994).

Tested on: vasopressor response of angiotensin II
Assay: AII Challenge: antagonism of angiotensin II vasopressor response
Assay type: in vivo
Settings: for inhibition in vivo at 3 mg/kg / inhibition in vivo at 5 mg/kg: Rattus norvegicus; for inhibition in vivo at 3 mg/kg: iv; for inhibition in vivo at 5 mg/kg: po
Procedure, shortened: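 Percent antagonism is based on the systolic blood pressure rise (mmHg) to i.v. angiotensin II at 0.05 and 0.1 ug/kg. Each rat's own predose response was taken as 100%. Challenges were repeated from 30 to 300 min after i.v., i.p. or oral compound in cannulated conscious male SHR, 16-20 weeks old.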

[1] = 3 mg/kg I.V., AII 0.05 mcg/kg IV, 30 min post dose
[2] = 3 mg/kg I.V., AII 0.05 mcg/kg IV, 60 min post dose
[3] = 3 mg/kg I.V., AII 0.05 mcg/kg IV, 90 min post dose
[4] = 3 mg/kg I.V., AII 0.05 mcg/kg IV, 120 min post dose
[5] = 3 mg/kg I.V., AII 0.05 mcg/kg IV, 180 min post dose
[6] = 3 mg/kg I.V., AII 0.1 mcg/kg IV, 30 min post dose
[7] = 3 mg/kg I.V., AII 0.1 mcg/kg IV, 60 min post dose
[8] = 3 mg/kg I.V., AII 0.1 mcg/kg IV, 90 min post dose
[9] = 3 mg/kg I.V., AII 0.1 mcg/kg IV, 120 min post dose
[10] = 3 mg/kg I.V., AII 0.1 mcg/kg IV, 180 min post dose
[11] = 0.5 h, 3 mg/kg I.V., AII 0.05 mcg/kg IV, 30 min post dose
[12] = 0.5 h, 3 mg/kg I.V., AII 0.1 mcg/kg IV, 30 min post dose
[13] = 1 h, 3 mg/kg I.V., AII 0.05 mcg/kg IV, 60 min post dose
[14] = 1 h, 3 mg/kg I.V., AII 0.1 mcg/kg IV, 60 min post dose
[15] = 2 h, 3 mg/kg I.V., AII 0.05 mcg/kg IV, 120 min post dose
[16] = 2 h, 3 mg/kg I.V., AII 0.1 mcg/kg IV, 120 min post dose
[17] = 3 h, 3 mg/kg I.V., AII 0.05 mcg/kg IV, 180 min post dose
[18] = 3 h, 3 mg/kg I.V., AII 0.1 mcg/kg IV, 180 min post dose
[19] = […], 3 mg/kg I.V., AII 0.05 mcg/kg IV, 90 min post dose
[20] = […], 3 mg/kg I.V., AII 0.1 mcg/kg IV, 90 min post dose

Structure (SMILES) | Response Average Change [1] [mmHg] | Response Average Change [2] [mmHg] | Response Average Change [3] [mmHg] | Response Average Change [4] [mmHg] | Response Average Change [5] [mmHg] | Response Average Change [6] [mmHg] | Response Average Change [7] [mmHg] | Response Average Change [8] [mmHg] | Response Average Change [9] [mmHg] | Response Average Change [10] [mmHg] | inhibition in vivo at 3 mg/kg [11] [%] | inhibition in vivo at 3 mg/kg [12] [%] | inhibition in vivo at 3 mg/kg [13] [%] | inhibition in vivo at 3 mg/kg [14] [%] | inhibition in vivo at 3 mg/kg [15] [%] | inhibition in vivo at 3 mg/kg [16] [%] | inhibition in vivo at 3 mg/kg [17] [%] | inhibition in vivo at 3 mg/kg [18] [%] | inhibition in vivo at 3 mg/kg [19] [%] | inhibition in vivo at 3 mg/kg [20] [%] | also measured
CCCCc1nc2ccc([C@@H]3C[C@H]4CCC(C)(C)N4O3)cc2c(=O)n1Cc1ccc(-c2ccccc2-c2nnn[nH]2)cc1 (relative stereo) [Example 61, (Cis)-2-Butyl-6-(hexahydro-6,6-dimethylpyrrolo[1,2-b]isoxazol-2-yl)-3-[[2'-(1H-tetrazol-5-yl][1,1'-biphenyl]-4-yl]methyl]-4(3H)-quinazolinone] | 7.5 | 10 | 6 | 13.5 | 15 | 7.5 | 12.5 | 3.5 | 15 | 16 | 83 | 84 | 78 | 73 | 70 | 67 | 67 | 65 | 87 | 92 | Response Average Change (5 mg/kg P.O., AII 0.05 mcg/kg IV, 30 min post dose): 27.5 mmHg; Response Average Change (5 mg/kg P.O., AII 0.05 mcg/kg IV, 60 min post dose): 29 mmHg; Response Average Change (5 mg/kg P.O., AII 0.05 mcg/kg IV, 90 min post dose): 30 mmHg; Response Average Change (5 mg/kg P.O., AII 0.05 mcg/kg IV, 120 min post dose): 22.5 mmHg; Response Average Change (5 mg/kg P.O., AII 0.05 mcg/kg IV, 180 min post dose): 35 mmHg; Response Average Change (5 mg/kg P.O., AII 0.1 mcg/kg IV, 30 min post dose): 32.5 mmHg; Response Average Change (5 mg/kg P.O., AII 0.1 mcg/kg IV, 60 min post dose): 35 mmHg; Response Average Change (5 mg/kg P.O., AII 0.1 mcg/kg IV, 90 min post dose): 29 mmHg; Response Average Change (5 mg/kg P.O., AII 0.1 mcg/kg IV, 120 min post dose): 30 mmHg; Response Average Change (5 mg/kg P.O., AII 0.1 mcg/kg IV, 180 min post dose): 35 mmHg; inhibition in vivo at 5 mg/kg (0.5 h, 5 mg/kg P.O., AII 0.05 mcg/kg IV, 30 min post dose): 40%; inhibition in vivo at 5 mg/kg (0.5 h, 5 mg/kg P.O., AII 0.1 mcg/kg IV, 30 min post dose): 31%; inhibition in vivo at 5 mg/kg (1 h, 5 mg/kg P.O., AII 0.05 mcg/kg IV, 60 min post dose): 37%; inhibition in vivo at 5 mg/kg (1 h, 5 mg/kg P.O., AII 0.1 mcg/kg IV, 60 min post dose): 26%; inhibition in vivo at 5 mg/kg (2 h, 5 mg/kg P.O., AII 0.05 mcg/kg IV, 120 min post dose): 51%; inhibition in vivo at 5 mg/kg (2 h, 5 mg/kg P.O., AII 0.1 mcg/kg IV, 120 min post dose): 36%; inhibition in vivo at 5 mg/kg (3 h, 5 mg/kg P.O., AII 0.05 mcg/kg IV, 180 min post dose): 24%; inhibition in vivo at 5 mg/kg (3 h, 5 mg/kg P.O., AII 0.1 mcg/kg IV, 180 min post dose): 26%; inhibition in vivo at 5 mg/kg ([…], 5 mg/kg P.O., AII 0.05 mcg/kg IV, 90 min post dose): 35%; inhibition in vivo at 5 mg/kg ([…], 5 mg/kg P.O., AII 0.1 mcg/kg IV, 90 min post dose): 38%
CCCCc1nc2ccc([C@H]3C[C@]4(C)CCCCN4O3)cc2c(=O)n1Cc1ccc(-c2ccccc2-c2nnn[nH]2)cc1 (relative stereo) [Example 65] | 2.5 | 15.5 | 11 | 8 | 25 | 2.5 | 11 | 16.5 | 12.5 | 17.5 | 95 | 95 | 66 | 77 | 82 | 74 | 45 | 64 | 76 | 66 | –
CCCCc1nc2ccc([C@@]3(C)C[C@@H]4CCCCN4O3)cc2c(=O)n1Cc1ccc(-c2ccccc2-c2nnn[nH]2)cc1 (relative stereo) [Example 67, Cis-2-Butyl-6-(hexahydro-2-methyl-2H-isoxazolo[2,3-a]pyridin-2-yl)-3-[[2'-(1H-tetrazol-5-yl)[1,1'-biphenyl]-4-yl]methyl]-4(3H)-quinazolinone] | 20 | 7.5 | 7.5 | 12.5 | 15 | 14 | 15 | 12.5 | 10 | 11.5 | 61 | 77 | 85 | 75 | 76 | 83 | 71 | 81 | 85 | 79 | Response Average Change (3 mg/kg I.V., AII 0.05 mcg/kg IV, 240 min post dose): 7.5 mmHg; Response Average Change (3 mg/kg I.V., AII 0.05 mcg/kg IV, 300 min post dose): 14 mmHg; Response Average Change (3 mg/kg I.V., AII 0.1 mcg/kg IV, 240 min post dose): 11 mmHg; Response Average Change (3 mg/kg I.V., AII 0.1 mcg/kg IV, 300 min post dose): 17.5 mmHg; inhibition in vivo at 3 mg/kg (4 h, 3 mg/kg I.V., AII 0.05 mcg/kg IV, 240 min post dose): 85%; inhibition in vivo at 3 mg/kg (4 h, 3 mg/kg I.V., AII 0.1 mcg/kg IV, 240 min post dose): 82%; inhibition in vivo at 3 mg/kg (5 h, 3 mg/kg I.V., AII 0.05 mcg/kg IV, 300 min post dose): 73%; inhibition in vivo at 3 mg/kg (5 h, 3 mg/kg I.V., AII 0.1 mcg/kg IV, 300 min post dose): 71%
